Where two headings read alike, the source gives them in different places.
What was measured:
Pseudomonas aeruginosa = assay: Microtiter plate biofilm formation assay (crystal violet), Pseudomonas aeruginosa; assay type: cell-based; conditions: read-out: % Biofilm Inhibition of Pseudomonas Aeruginosa
Method: In this example, a concentrated solution of each compound tested was loaded separately into three separate wells of a polystyrene microtiter plate. In addition, each assay included triplicate wells correlating to negative and positive controls. […] Next, 150 μl of sterile media was added to each well (LB media with 0.2% glucose)—followed by 50 μl of the appropriate bacterial inoculum. Thus, each well contained a final volume of approximately 200 μl (not including the volume of the concentrated inhibitor). The final concentration of each biofilm inhibitor tested in the assay was 10 μg/ml. The microtiter plates were then placed on a shaker for approximately 20 to 24 hours at room temperature. After the incubation period, the microtiter plate was removed from the shaker, rinsed, and stained. During the rinsing step, the test compound, media, and bacterial inoculum solution was drained from the plate, approximately 300 μL of 0.1M phosphate buffered saline (PBS) was added to each well, which was subsequently drained from the plate. The rinsing step removed any suspended cells from the assay. An 0.1% crystal violet stain was added to each well for approximately 20 minutes. Next, the crystal violet solution was drained from the microtiter plate. The plate was rinsed with PBS as described above four (4) times to remove any excess stain from the plate. Following the PBS rinsing steps, the plate was eluted with 250 μL/well of ethanol, which improved the detection of the stain. The plate was immediately analyzed spectrophotometrically at 540 nm using a microtiter plate reader.
The average O.D. for each test compound was compared to the average O.D. of the negative control (the positive control was employed to verify proper assay function).

[1] = test system: E. coli clinical strain UTI89; assay: Biofilm formation of E. coli clinical strain UTI89 in 96 well plates (crystal violet); assay type: cell-based; conditions: Escherichia coli, 24 h, one day, read-out: inhibition of biofilm formation of the UTI89 strain as compared to the controls; for inhibition at 32 µg/mL: 32 ug/ml; for inhibition at 8 µg/mL: 8 ug/ml; for inhibition at 16 µg/mL: 16 ug/ml
Method: Biofilm inhibition experiments were conducted using an assay adapted from the reported protocol described in Pratt and Kolter, 1998, Molecular Microbiology, 30: 285-293; Li et al., 2001, J. Bacteriol., 183: 897-908. E. coli clinical strain UTI89 was grown in LB in 96 well plates at room temperature for one day without shaking. To quantify the biofilm mass, the suspension culture was poured out and the biofilm was washed three times with water. The biofilm was stained with 0.1% crystal violet for 20 minutes. The plates were then washed three times with water. Then 95% ethanol was added to dissolve the dye at the bottom and on the wall and the OD reading at 540 nm was measured to quantify the total biofilm mass. Test compounds were added with the inoculation and biofilm mass was measured after one day as described above appropriate amounts of 100% ethanol were added to each sample to eliminate the effect of solvent. Each condition had 4 to 8 replicates on each plate and was performed over multiple days.

Escherichia coli = assay: Microtiter plate biofilm formation assay (crystal violet), Escherichia coli; assay type: cell-based; conditions: read-out: % Biofilm Inhibition of E. coli
S. salivaris = conditions: data of the '911 patent; cited from earlier work
P. aeruginosa = conditions: data of the '911 patent; cited from earlier work
S. aureus = conditions: data of the '911 patent; cited from earlier work
S. mutans = conditions: data of the '911 patent; cited from earlier work
E. coli = conditions: data of the '911 patent; cited from earlier work
bacterial growth = assay: Bacterial growth inhibition studies; assay type: cell-based
[2] = test system: methicillin-resistant Staphylococcus aureus; conditions: cited from earlier work
[3] = 10 μg/ml, 20 to 24 hours at room temperature, O.D. 540 nm vs negative control
[4] = 10 μg/ml, same microtiter assay

SMILES: C[C@@H]1[C@H]2C3=CC[C@@H]4[C@@]5(C)CC[C@H](OC(=O)/C=C\c6ccc(O)cc6)C(C)(C)[C@@H]5CC[C@@]4(C)[C@]3(C)CC[C@@]2(C(=O)O)CC[C@]1(C)O (relative stereo) [Compound 188, 3-[4-Hydroxycinnamoyl(cis-)], 20-hydroxy-ursolic acid]
- inhibition at 10 µg/mL (Pseudomonas aeruginosa; [3]): 62%

SMILES: CO[C@H]1C[C@@]2(C)C(CC[C@]3(C)C2CC=C2C4[C@@H](C)[C@H](C)CC[C@]4(C(=O)O)CC[C@]23C)C(C)(C)[C@@H]1OC(=O)/C=C/c1ccccc1 (stereo partly drawn) [2β-methoxy-3α-cinnamoyl-12-ursen-28-oic acid]
- inhibition at 32 µg/mL [1]: ~40%

SMILES: C[C@@H]1CC[C@]2(C(=O)O)CC[C@]3(C)C(=CCC4[C@@]5(C)CC[C@H](OC(=O)OC(C)(C)C)C(C)(C)C5CC[C@]43C)C2[C@H]1C (stereo partly drawn) [3β-O-tert-butyloxycarbonyl-ursolic acid]
- inhibition at 32 µg/mL [1]: ~46%

SMILES: C[C@H]1[C@H](CO)CC[C@]2(C(=O)O)CC[C@]3(C)C(=CCC4[C@@]5(C)CC[C@H](O)C(C)(C)C5CC[C@]43C)[C@H]12 (some centres unmarked) [Compound 99, 30-hydroxyursolic acid]
- inhibition at 10 µg/mL (Pseudomonas aeruginosa; [3]): 30%

SMILES: CC1(C)CC[C@]2(C(=O)O)CCC3(C)C(=CCC4C5(C)C[C@@H](O)[C@H](O)C(C)(C)C5CCC43C)[C@@H]2C1 (some centres unmarked) [Compound 107, 2-hydroxyoleanic acid]
- inhibition at 10 µg/mL (Pseudomonas aeruginosa): 46%

SMILES: C[C@@H]1CC[C@]2(C(=O)O)CCC3(C)C(=CCC4C5(C)C[C@@H](O)[C@H](O)C(C)(C)C5CCC43C)C2[C@H]1C (stereo partly drawn) [Compound 108, 2α,3β-dihydroxy-12-ursen-28-oic acid]
- inhibition at 10 µg/mL (Escherichia coli; [4]): 74%
- inhibition at 10 µg/mL (Pseudomonas aeruginosa; [3]): 52%
- inhibition at 20 µg/mL ([1]; 20 ug/ml): ~85%

SMILES: C[C@H]1[C@H](C)CC[C@]2(C(=O)O)CC[C@]3(C)C(=CC[C@@H]4[C@@]5(C)CC[C@H](O)C(C)(C)[C@@H]5CC[C@]43C)[C@H]12 [Compound 110, Ursolic Acid]
- Growth inhibition of S. salivaris (S. salivaris): completely inhibited
- Growth inhibition of P. aeruginosa (P. aeruginosa): failed to inhibit
- inhibition at 10 µg/mL (Escherichia coli; [4]): 80%
- Growth inhibition of S. aureus (S. aureus): failed to inhibit
- Growth inhibition of S. mutans (S. mutans): completely inhibited
- Growth inhibition of E. coli (E. coli): failed to inhibit

SMILES: C[C@H]1[C@H](C)CC[C@]2(C(=O)O)CC[C@]3(C)C(=CCC4[C@@]5(C)C[C@@H](O)[C@H](OC(=O)/C=C/c6ccc(O)cc6)C(C)(C)C5CC[C@]43C)[C@H]12 (stereo partly drawn) [Compound 189, 3-[4-hydroxycinnamoyl(trans-)]-2-hydroxyursolic acid]
- inhibition at 10 µg/mL (Pseudomonas aeruginosa; [3]): 35%

SMILES: CC1CCC2(C(=O)O)CCC3(C)C(=CCC4C5(C)CC(O)C(O)C(C)(C)C5CCC43C)C2C1(C)O (centres unmarked) [Compound 192, Euscaphic Acid]
- inhibition at 10 µg/mL (Pseudomonas aeruginosa; [3]): 32%

SMILES: C[C@@H]1[C@H]2C3=CCC4[C@@]5(C)CC[C@H](O)C(C)(C)C5CC[C@@]4(C)[C@]3(C)CC[C@@]2(C(=O)O)CC[C@]1(C)O (some centres unmarked) [Compound 195, 20B-hydroxyursolic acid]
- inhibition at 10 µg/mL (Pseudomonas aeruginosa; [3]): 25%

SMILES: C[C@@H]1CC[C@]2(C(=O)O)CC[C@]3(C)C(=CCC4[C@@]5(C)C[C@@H](O)[C@H](O)C(C)(C)C5CC[C@]43C)[C@@H]2[C@]1(C)O (some centres unmarked) [Compound 203, Tormentic Acid]
- inhibition at 10 µg/mL (Pseudomonas aeruginosa; [3]): 43%

SMILES: CC1(C)CC[C@]2(C(=O)O)CC[C@]3(C)C(=CC[C@@H]4[C@@]5(C)CC[C@H](O)C(C)(C)[C@@H]5CC[C@]43C)[C@@H]2C1 [Compound 225, Oleanolic Acid]
- Growth inhibition of S. salivaris (S. salivaris): incomplete inhibition
- Growth inhibition of P. aeruginosa (P. aeruginosa): failed to inhibit
- inhibition at 10 µg/mL (Escherichia coli; [4]): 35%
- Growth inhibition of S. aureus (S. aureus): failed to inhibit
- inhibition at 10 µg/mL (Pseudomonas aeruginosa; [3]): 35%
- Growth inhibition of S. mutans (S. mutans): incomplete inhibition
- Growth inhibition of E. coli (E. coli): failed to inhibit

SMILES: C[C@@H]1CCC2(C(=O)O)CC[C@]3(C)C(=CCC4[C@@]5(C)C[C@@H](O)[C@H](O)[C@@](C)(CO)C5CC[C@]43C)C2[C@H]1C (some centres unmarked) [Compound 255, Asiatic Acid]
- inhibition at 10 µg/mL (Escherichia coli; [4]): 75%
- direct anti-bacterial activity (bacterial growth): do not display direct anti-bacterial activity

SMILES: C[C@H]1[C@H](C)CC[C@]2(C(=O)O)CC[C@]3(C)C(=CC[C@@H]4[C@@]5(C)C[C@@H](O)[C@H](O)[C@@](C)(CO)[C@@H]5[C@H](O)C[C@]43C)[C@H]12 [Compound 314, Madecassic Acid]
- direct anti-bacterial activity (bacterial growth): do not display direct anti-bacterial activity

SMILES: CC1(C)CC[C@@]2(C(=O)O)C(O)C[C@]3(C)C(=CCC4[C@@]5(C)CC[C@H](O)[C@@](C)(CO)C5CC[C@]43C)C2C1 (some centres unmarked) [Compound 323, Caulophyllogenin]
- inhibition at 10 µg/mL (Escherichia coli; [4]): 35%

SMILES: CO[C@H]1C[C@@]2(C)C(CC[C@]3(C)C2CC=C2C4[C@@H](C)[C@H](C)CCC4(C(=O)O)CC[C@]23C)C(C)(C)[C@@H]1O (stereo partly drawn) [Compound 410, 2β-methoxy-3α-hydroxy-12-ursen-28-oic acid]
- inhibition at 32 µg/mL [1]: ~38%

SMILES: C=C1CCC2(C(=O)O)CCC3(C)C(=CCC4C5(C)CCC(O)C(C)(C)C5CCC43C)C2C1C (centres unmarked) [Compound 430, 3-hydroxy-12,20(30) ursadien-28-oic acid]
- inhibition at 10 µg/mL (Escherichia coli): 60%

SMILES: C[C@@H]1CC[C@]2(C(=O)O)CCC3(C)C(=CCC4C5(C)C[C@H](O)[C@@H](O)C(C)(C)C5CCC43C)C2[C@H]1C (stereo partly drawn) [Compound 431, 2β,3α-dihydroxy-12-ursen-28-oic acid]
- inhibition at 32 µg/mL [1]: ~62%

SMILES: CC1(C)CC[C@]2(C(=O)O)[C@H](O)C[C@]3(C)C(=CC[C@@H]4[C@@]5(C)CC[C@H](O)C(C)(C)[C@@H]5CC[C@]43C)[C@@H]2C1 [Compound 455, 3β,16α-dihydroxyolean-12-en-28-oic acid]
- inhibition at 8 µg/mL [1]: ~27%
- inhibition at 16 µg/mL [1]: ~50%
- inhibition at 32 µg/mL [1]: ~80%

SMILES: C[C@@H]1CC[C@]2(C(=O)O)CC[C@]3(C)C(=CCC4[C@@]5(C)C[C@@H](O)[C@@H](O)[C@](C)(CO)C5CC[C@]43C)C2[C@H]1C (stereo partly drawn) [Compound 457, 2α,3α,24-trihydroxy-12-ursen-28-oic acid]
- inhibition at 8 µg/mL [1]: ~50%
- inhibition at 16 µg/mL [1]: ~53%
- inhibition at 32 µg/mL [1]: ~80%

SMILES: C[C@@H]1CC[C@]2(C(=O)O)CC[C@]3(C)C(=CCC4[C@]5(C)C(CC[C@]43C)[C@@](C)(CO)[C@H](O)[C@H](O)[C@H]5O)C2[C@H]1C (stereo partly drawn) [Compound 458, 1β,2α,3α,24-tetrahydroxy-12-ursen-28-oic acid]
- inhibition at 32 µg/mL [1]: ~45%

SMILES: CO[C@H]1/C=C/O[C@@]2(C)Oc3c(C)c(O)c4c(O)c(c(/C=N/N5CCN(C)CC5)c(O)c4c3C2=O)NC(=O)/C(C)=C\C=C\[C@H](C)[C@H](O)[C@@H](C)[C@@H](O)[C@@H](C)[C@H](OC(C)=O)[C@@H]1C [rifampin]
- Eradication of MRSA in a biofilm ([2]; biofilm, urinary catheters): unable to eradicate
- Activity against MRSA planktonic, or suspended cells ([2]; planktonic cells): effective
